# Tested on: cancer cell lines / MV-4-11 Myc reporter cell line
# Test: Bromodomain cell assays of Example 8 (at least one of them)
# Assay type: cell-based
# Settings: Homo sapiens, MV4-11; at least one of the bromodomain cell assays described in Example 8
# Procedure: In this study, we test compounds in different cancer cell lines. MV-4-11 and MOLM-13 are AML cell lines harboring a MLL-AF4 and MLL-AF9 translocation, respectively. MM.1S is a multiple myeloma cell line. SK—N-AS, IMR-32 and SK-N-BE(2) are neuroblastoma cell lines. IMR-32 and SK-N-BE(2) cell lines harbor MYCN amplifications.
# MV-4-11, MM.1S, IMR-32, SK-N-AS and SK-N-BE(2) were obtained from ATCC (IL, USA) and MOLM-13 were purchased from DSMZ (Braunschweig, German). Cells are cultured as recommended by their sources. For growth inhibition studies 3000 cells are seeded in wells of a 96-well plate in 75 μL of culture media. After several hours, growth media containing compounds of formula (I) are added to the wells. Compound at a maximal concentration of 5 mM was serially diluted 1:3 for a total of 8 point titration with DMSO as a control. A 1 μL aliquot of each dilution point is added to 249 μL growth media and 75 μL is added to each well containing cells, providing 10 μM compound at the maximum concentration point. The final concentration of DMSO in all wells is 0.2%. Cells are incubated for 72 hours, and 25 μL of CellTiter Glo Reagent (Promega Ga., USA) is added to each well. Plates are shaken for approximately 10 minutes and chemiluminescent signal is read on Tecan microplate reader. The measured luminescence correlates directly with cell number.
# All data is normalized to the mean of eight DMSO high control wells on each plate. A four parameter curve fit of the following formula was then applied: Y=a+(b−a)/(1+(x/c)^d) Where ‘a’ is the minimum, ‘b’ is the maximum, ‘c’ is the pIC50 and ‘d’ is the Hill slope. […] Myc Reporter Assay
# In MV-4-11 cells, BRD2, BRD3 and BRD4 bind to the promoter region of MYC and regulate its transcription (Dawson M A et al. 2011). The literature bromodomain inhibitor iBET 151 could disrupt BRD4 recruitment to the MYC promoter and subsequently downregulate c-myc transcription (Dawson M A et al. 2011). Myc protein is a transcription factor that heterodimerizes with an obligatory partner Max and regulates the transcription of genes important for cell proliferation, differentiation, and apoptosis. This Myc reporter assay is used to monitor the inhibitory effect of compound of formula (I) on Myc dependent gene expression. Effective compounds could have potential therapeutic effects in Myc-driven tumors.
# The MV-4-11 Myc reporter cell line is established by infecting MV-4-11 with VSV-g pseudotyped lentivirus expressing the firefly luciferase gene under the control of a minimal (m) CMV promoter and tandem repeats of the E-box transcriptional response element (TRE) (Qiagen IL, USA) and selecting cells in 2.5 μg/ml Puromycin.
# The MV-4-11 Myc reporter cell line is maintained in Iscove's Modified Dulbecco's Medium containing 10% FBS, 1% PenStep and 2.5 μg/ml Puromycin. Cells are incubated at 37° C. in a humidified atmosphere with 5% CO2. 25,000 cells are seeded in 96-well plate in 50 μL of culture media. After several hours, growth media containing 2× compounds are added to the wells. Compound at a maximal concentration of 5 mM is serially diluted 1:3 for a total of 8 point titration. A 1 μl aliquot of each dilution point is added to 249 μl growth media and 50 μl is added to each well containing cells, providing 10 μM compound at the maximum concentration point. DMSO treated cells serve as a high control and 10 μM JQ1 treated cells serve as a low control. Cells are incubated for a further 24 hours and 25 μL of CellTiter-Fluo Reagent (Promega Ga., USA) is added to each well. Plates are shaken for approximately 2 minutes and incubated at 37° C. for 0.5 hour. Fluorescence signal is read in a Tecan Plate reader (λex=400 nm, λcm=505 nm). 25 μL of One-Glo Reagent (Promega Ga., USA) is then added to the plates. Chemiluminescent signal is read on Tecan plate reader. Values from the wells with no cells are subtracted from all samples for background correction. […]
row,Structure (SMILES),IC50
1,"Cc1noc(C)c1-c1ccc2[nH]nc(Cc3ccccc3)c2c1 [Compound P-2035, 4-(3-benzyl-1H-indazol-5-yl)-3,5-dimethyl-isoxazole]",< 10 µM
2,"Cc1noc(C)c1-c1cnc2c(I)nn([C@@H](C)c3ccccn3)c2c1 [Compound P-2091, 4-[3-iodo-1-[(1S)-1-(2-pyridyl)ethyl]pyrazolo[4,3-b]pyridin-6-yl]-3,5-dimethyl-isoxazole]",< 10 µM
3,"Cc1noc(C)c1-c1ccc2c(c1)c(Cc1ccccc1)nn2-c1ccc(C(=O)O)cc1F [Compound P-2037, 4-[3-benzyl-5-(3,5-dimethylisoxazol-4-yl)indazol-1-yl]-3-fluoro-benzoic acid]",< 10 µM
4,"Cc1noc(C)c1-c1cnc2[nH]nc(Cc3ccccc3)c2c1 [Compound P-2100, 4-(3-benzyl-1H-pyrazolo[3,4-b]pyridin-5-yl)-3,5-dimethyl-isoxazole]",< 10 µM
5,"CCOC(=O)c1ccc(-n2nc(Cc3ccccc3)c3cc(-c4c(C)noc4C)cnc32)c(F)c1 [Compound P-2101, ethyl 4-[3-benzyl-5-(3,5-dimethylisoxazol-4-yl)pyrazolo[3,4-b]pyridin-1-yl]-3-fluoro-benzoate]",< 10 µM
6,"Cc1noc(C)c1-c1cnc2c(-c3ccc(CC(=O)O)cc3)nn(C(c3ccccc3)c3ccccn3)c2c1 (centres unmarked) [Compound P-2097, 2-[4-[6-(3,5-dimethylisoxazol-4-yl)-1-[phenyl(2-pyridyl)methyl]pyrazolo[4,3-b]pyridin-3-yl]phenyl]acetic acid]",< 10 µM
7,"Cc1noc(C)c1-c1cnc2c(-c3ccc(C(=O)O)cc3)nn([C@@H](C)c3ccccn3)c2c1 [Compound P-2093, 4-[6-(3,5-dimethylisoxazol-4-yl)-1-[(1S)-1-(2-pyridyl)ethyl]pyrazolo[4,3-b]pyridin-3-yl]benzoic acid]",< 10 µM
8,"Cc1noc(C)c1-c1cnc2c(I)nn(C(c3ccccc3)c3ccccn3)c2c1 (centres unmarked) [Compound P-2095, 4-[3-iodo-1-[phenyl(2-pyridyl)methyl]pyrazolo[4,3-b]pyridin-6-yl]-3,5-dimethyl-isoxazole]",< 10 µM

# More lines, now with the values ahead:
row,IC50,Structure (SMILES)
1,< 10 µM,"Cc1noc(C)c1-c1cnc2c(-c3cnn(C)c3)nn([C@@H](C)c3ccccn3)c2c1 [Compound P-2099, 3,5-dimethyl-4-[3-(1-methylpyrazol-4-yl)-1-[(1S)-1-(2-pyridyl)ethyl]pyrazolo[4,3-b]pyridin-6-yl]isoxazole]"
2,< 10 µM,"Cc1noc(C)c1-c1cnc2c(c1)c(Cc1ccccc1)nn2-c1ccc(C(=O)O)cc1F [Compound P-2102, 4-[3-benzyl-5-(3,5-dimethylisoxazol-4-yl)pyrazolo[3,4-b]pyridin-1-yl]-3-fluoro-benzoic acid]"
3,< 10 µM,"Cc1noc(C)c1-c1cnc2c(-c3ccc(CC(=O)O)cc3)nn([C@@H](C)c3ccccn3)c2c1 [Compound P-2094, 2-[4-[6-(3,5-dimethylisoxazol-4-yl)-1-[(1S)-1-(2-pyridyl)ethyl]pyrazolo[4,3-b]pyridin-3-yl]phenyl]acetic acid]"
4,< 10 µM,"Cc1noc(C)c1-c1cnc2c(-c3ccc(C(=O)O)cc3)nn(C(c3ccccc3)c3ccccn3)c2c1 (centres unmarked) [Compound P-2096, 4-[6-(3,5-dimethylisoxazol-4-yl)-1-[phenyl(2-pyridyl)methyl]pyrazolo[4,3-b]pyridin-3-yl]benzoic acid]"
5,< 10 µM,"CCOC(=O)c1ccc(-n2nc(Cc3ccccc3)c3cc(-c4c(C)noc4C)ccc32)c(F)c1 [Compound P-2036, ethyl 4-[3-benzyl-5-(3,5-dimethylisoxazol-4-yl)indazol-1-yl]-3-fluoro-benzoate]"
6,< 10 µM,"Cc1noc(C)c1-c1cnc2c(-c3cnn(CC(F)(F)F)c3)nn([C@@H](C)c3ccccn3)c2c1 [Compound P-2098, 3,5-dimethyl-4-[1-[(1S)-1-(2-pyridyl)ethyl]-3-[1-(2,2,2-trifluoroethyl)pyrazol-4-yl]pyrazolo[4,3-b]pyridin-6-yl]isoxazole]"

# — US9856259B2, “Heterocyclic compounds and uses thereof” (Plexxikon Inc., priority 2014, dated 2018)
